Reference: US6087493A, “Porphyrin compounds as telomerase inhibitors” (Regents of the University of Texas System, priority 1998, dated 2000)

Assays:
Type in all cases: cell-based, human
PC3 = assay: Cytotoxicity (MTT) PC3; settings: Homo sapiens, PC-3; PC3 (prostate), 4-7 days; read-out: IC 50 cytotoxicity
Protocol: The cells were cultured in the presence of the porphyrins incubator for 4-7 days and then treated with 3-(4,5-dimethylthiazol-2-yl)-2,5-diphenyl-tetrazolium bromide (MTT). Formazan concentration was quantitated by absorbance at 570 nm.

MCF7 cells = assay: Nuclear localization of TMPyP4 in MCF7 cells
Protocol: MCF7 cells were seeded at 5×10^5 cells per flask and cultured in the presence of 0, 50, or 100 μM TMPyP4 for 7 days with one exchange of medium. The cells were harvested with trypsin-EDTA, washed with PBS and counted using a Coulter counter. The cells were then pelleted by centrifugation at 700 g and lysed in a hypotonic solution (0.1×PBS);the resulting lysate was sedimented at 700 g for 10 min. The supernatant was removed and the pellet was dissolved in 0.5 ml of 2% SDS. Absorbance of the supernatants and pellet was measured at 423 nm. TMPyP4 diluted in 2% SDS containing 1 mg/ml salmon sperm DNA was used for the standard curve.
Several reports indicate that porphyrins localize specifically in tumor tissue, although sites of subcellular localization may vary widely with porphyrin structure and net charge (De Paolis et al., 1985). […] To gain insight into the subcellular distribution of cationic porphyrins, the inventors have cultured MCF7 cells with 0, 50, or 100 μM TMPyP4 for 7 days.

HeLa cells = assay: Chromosome fusion in HeLa cells; settings: 3 μM, 2-4 days

C[n+]1ccc(-c2c3nc(c(-c4cc[n+](C)cc4)c4ccc([nH]4)c(-c4cc[n+](C)cc4)c4nc(c(-c5cc[n+](C)cc5)c5ccc2[nH]5)C=C4)C=C3)cc1 [TMPyP4, 5,10,15,20-tetra-(N-methyl-4-pyridyl)porphine]
IC50 (PC3): 184 µM | cytoplasm as % of nuclear fraction concentration (MCF7 cells; 50 μM TMPyP4, 7 days): 3.3% | porphyrin concentration in the nuclear pellet (MCF7 cells; 50 μM TMPyP4, 7 days): 1.39 nmoles/10^6 cells | porphyrin in cytoplasm (MCF7 cells; 50 μM TMPyP4, 7 days): 47.3 pmoles/10^6 cells | cytoplasm as % of nuclear pellet concentration (MCF7 cells; 100 μM TMPyP4, 7 days): 5.5% | porphyrin concentration in the nuclear fraction (MCF7 cells; 100 μM TMPyP4, 7 days): 7.81 nmoles/10^6 cells | porphyrin in cytoplasmic fraction (MCF7 cells; 100 μM TMPyP4, 7 days): 434 pmoles/10^6 cells | calculated concentration in the nucleus (MCF7 cells; assuming nucleus 1/100 of cell volume): 1.4 to 78 mM | calculated concentration in the cytoplasm (MCF7 cells; assuming volume of 10^6 cells 10-100 μl): 0.47 to 434 µM | fused chromosomes (HeLa cells): number of fused chromosomes was increased in comparison with the untreated controls
